{"source": "patent US6683056B2", "about": "“O-aryl glucoside SGLT2 inhibitors and method” (Bristol-Myers Squibb Company, priority 2000, dated 2004)", "origin": "cited, not measured here", "key": {"[1]": {"tested_on": "facilitative glucose transporters (GLUTs)"}, "[2]": {"conditions": "oral"}, "[3]": {"tested_on": "several diabetic rodent models and one canine diabetes model"}, "normal animals": {"tested_on": "normal animals", "conditions": "despite the presence of glycosuria"}, "SGLT1": {"molecular_target": "T1, SGLT1 (Homo sapiens, UniProt P13866)", "T1 sequence (P13866 1-664)": "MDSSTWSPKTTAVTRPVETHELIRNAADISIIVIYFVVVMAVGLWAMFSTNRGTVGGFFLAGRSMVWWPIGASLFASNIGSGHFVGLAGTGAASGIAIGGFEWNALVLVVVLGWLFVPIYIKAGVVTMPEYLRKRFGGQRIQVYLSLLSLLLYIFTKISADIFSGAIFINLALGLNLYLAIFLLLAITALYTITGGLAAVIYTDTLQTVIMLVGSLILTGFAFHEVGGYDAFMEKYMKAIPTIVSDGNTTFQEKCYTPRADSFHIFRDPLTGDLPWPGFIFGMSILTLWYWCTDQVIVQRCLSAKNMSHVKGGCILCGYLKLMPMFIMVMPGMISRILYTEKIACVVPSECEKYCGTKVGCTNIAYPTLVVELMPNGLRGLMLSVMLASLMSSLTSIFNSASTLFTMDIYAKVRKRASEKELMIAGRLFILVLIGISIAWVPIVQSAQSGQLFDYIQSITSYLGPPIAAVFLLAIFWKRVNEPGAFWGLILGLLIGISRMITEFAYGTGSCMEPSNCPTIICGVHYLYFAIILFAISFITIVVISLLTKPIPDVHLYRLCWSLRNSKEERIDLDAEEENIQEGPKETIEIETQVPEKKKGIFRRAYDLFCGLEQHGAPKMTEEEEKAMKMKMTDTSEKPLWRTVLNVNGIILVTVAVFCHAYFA"}, "SGLT2": {"molecular_target": "T2, SGLT2 (Homo sapiens, UniProt P31639)", "T2 sequence (P31639 1-672)": "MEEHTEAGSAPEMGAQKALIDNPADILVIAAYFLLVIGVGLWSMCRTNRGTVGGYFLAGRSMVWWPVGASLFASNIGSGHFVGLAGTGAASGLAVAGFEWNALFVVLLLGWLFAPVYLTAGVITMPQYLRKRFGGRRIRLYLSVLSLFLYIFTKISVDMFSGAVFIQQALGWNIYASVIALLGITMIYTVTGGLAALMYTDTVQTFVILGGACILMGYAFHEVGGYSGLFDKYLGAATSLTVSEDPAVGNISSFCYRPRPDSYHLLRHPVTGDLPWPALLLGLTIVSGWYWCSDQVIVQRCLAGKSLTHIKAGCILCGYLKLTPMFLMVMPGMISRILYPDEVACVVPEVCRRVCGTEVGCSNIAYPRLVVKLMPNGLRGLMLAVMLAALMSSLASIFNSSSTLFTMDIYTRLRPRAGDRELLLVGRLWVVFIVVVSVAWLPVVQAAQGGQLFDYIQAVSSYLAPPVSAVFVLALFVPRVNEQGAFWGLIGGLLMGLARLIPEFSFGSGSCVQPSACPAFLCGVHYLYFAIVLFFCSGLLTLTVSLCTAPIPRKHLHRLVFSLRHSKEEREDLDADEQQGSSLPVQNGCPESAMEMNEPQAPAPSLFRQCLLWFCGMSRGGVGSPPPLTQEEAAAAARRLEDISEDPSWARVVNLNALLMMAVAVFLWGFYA", "conditions": "read-out: Km values for uptake"}}}
{"molecule": "O=C(CCc1ccc(O)cc1)c1c(O)cc(O)cc1O", "note": "[phloretin]", "values": [{"measurement": "inhibition of facilitated glucose transport", "setting": "[1]", "value": "potent inhibitor of facilitated glucose transport"}]}
{"molecule": "O=C(CCc1ccc(O)cc1)c1c(O)cc(O)cc1O[C@@H]1O[C@H](CO)[C@@H](O)[C@H](O)[C@H]1O", "note": "[phlorizin]", "values": [{"measurement": "stability in the gut", "setting": "[2]", "value": "hydrolyzed in the gut to its aglycone phloretin"}, {"measurement": "in vivo effect on glucose excretion and plasma glucose", "setting": "[3]; diabetic rodent models and one canine diabetes model", "value": "promoting glucose excretion, lowering fasting and fed plasma glucose, and promoting glucose utilization without hypoglycemic side effects"}, {"measurement": "adverse effects of treatment", "setting": "[3]; treatment for as long as two weeks", "value": "No adverse effects on plasma ion balance, renal function or renal morphology"}, {"measurement": "hypoglycemic or other adverse effects", "setting": "normal animals", "value": "no hypoglycemic or other adverse effects"}]}
{"molecule": "O=C[C@H](O)[C@@H](O)[C@@H](O)[C@H](O)CO", "note": "[galactose]", "values": [{"measurement": "substrate specificity", "setting": "SGLT1; SGLT1 versus SGLT2", "value": "substrate for SGLT1 only"}]}
{"molecule": "CO[C@H]1O[C@H](CO)[C@@H](O)[C@H](O)[C@H]1O", "note": "[AMG, α-methyl-D-glucopyranoside]", "values": [{"measurement": "Km", "setting": "SGLT1; SGLT1, read-out: Km values for uptake", "value": 400, "unit": "µM"}, {"measurement": "Km", "setting": "SGLT2", "value": 1600, "unit": "µM"}]}
